Data taken from article PMC9021288 (Nature Communications, 2022).
Values joined by “and” are separate entries in the source; they are usually repeats but may differ in a detail not shown here. Identical values can stand only once. Like-named read-outs stand apart in the source and are kept apart here.

Columns and labels:
[1] = system: P. falciparum NF54 asexual blood-stage parasites; experiment: 72-h asexual blood-stage replication assay (SYBR Green); format: cell-based, Plasmodium falciparum; parameters: key to asexual blood stages growth, dose-response: % growth; DMSO control = 100%, DHA/epoxomicin-treated = no growth
Procedure: (§1) Replication assays were performed using a SYBR Green method as described previously. Briefly, asynchronous parasites were diluted to 0.83% parasitemia, 3% hematocrit in 30 µl medium, and added to 30 µl of diluted compounds in medium (0.1% DMSO final concentration) in black 384-wells plates. After a 72-h incubation, 30 µl of SYBR Green diluted in lysis buffer was added according to the manufacturer’s protocol (Life Technologies). Fluorescence intensity was measured on a BioTek Synergy 2 Plate Reader after 1-h incubation and was normalized to a DMSO control (100% growth) and DHA- or epoxomicin-treatment (no growth). […] Parasite survival was assessed by flow cytometry on an Accuri C6 (BD Biosciences) with BD C6 Plus software using SYBR Green and MitoTracker Deep Red FM (Life Technologies) as nuclear stain and vital dye, respectively, and data were analyzed using FlowJo (10.5.0). […] Luminescence was measured after 72 h using the Renilla-Glo(R) Luciferase Assay System (Promega E2750) and the GlomAX® Discover Multimode Microplate Reader (Promega). The luminescence values were normalized to DMSO vehicle (100% growth) and 200 nM chloroquine-treated (no growth) samples as controls.
Dose-response assays were analyzed by a nonlinear regression using a four-parameter model and the least squares method to find the best fit. One-way Analysis of variance (ANOVA) was performed using the Bonferroni’s Multiple Comparison Test. For the majority of experiments, 2-4 biological replicates were performed. Typically, 2 replicates were performed for screening activities, and a minimum of 3 replicates are performed for other experiments unless stated otherwise.

[2] = system: cryopreserved human primary hepatocytes; experiment: in vitro; conditions: for Human hepatocyte CLint: hepatocytes; for % Remaining: 10 µM, single replicates
From the text: Briefly, cryopreserved human primary hepatocytes were thawed and cultured as described above.

[3] = system: P. falciparum NF54-HGL, dT648M, cT648M, cT627A asexual blood stages; experiment: Asexual drug-sensitivity of AcAS mutant parasites; format: cell-based, Plasmodium falciparum
Procedure: as §1
The mutation found in selected drug-resistant parasites was verified by introducing the point mutations in AcAS (T648M and T627A) in NF54-HGL parasites using a CRISPR-Cas9 system as described previously. The oligonucleotides for the guide RNA and the donor template were cloned into a pDC2-based plasmid containing a Cas9 and guide cassette, using the BbsI and EcoRI/AatII restriction sites, respectively. Donor DNA was amplified by (overlap-extension) PCR amplification from genomic P. falciparum DNA and oligonucleotides for the guide RNAs were ordered (Sigma-Aldrich). The correct sequence and integration of both inserts were confirmed by Sanger Sequencing.

[4] = system: rat primary hepatocytes; experiment: Hepatocyte stability, rat; format: in vitro ADME
[5] = system: P. falciparum T648M / T627A AcAS mutant gametocytes; format: cell-based, Plasmodium falciparum
Procedure: Gametocyte viability assays on NF54-HGL parasites were performed using an adapted high-throughput protocol as previously described[15],[64]. In short, asexual blood-stage parasite cultures were set up at 1% parasitemia in a semi-automated shaker system at 5% hematocrit. From day four until day eight or nine, parasites were treated with 50 mM N-acetyl glucosamine to eliminate all asexual blood-stage parasites. Subsequently, gametocytes were isolated by a Percoll density gradient centrifugation. At day 11, gametocytes were seeded (5,000 per well) in 30 µl in white 384-well plates containing 30 µl of compounds diluted in medium (0.1% DMSO). After a 72-h incubation, 30 µl of ONE-Glo reagent (Promega) was added according to manufacturer’s protocol and luminescence was quantified using the BioTek Synergy 2 Plate reader. Values were normalized to DMSO- and epoxomicin or dihydroartemisinin-treated controls.

[6] = system: P. falciparum 3D7; experiment: Parasite reduction rate (PRR) in vitro killing rate assay; format: cell-based, Plasmodium falciparum
Procedure: The antimalarial killing rate was determined by GlaxoSmithKline (GSK, Tres Cantos, Madrid, Spain) as described previously. […] The number of viable parasites was determined on day 21 and 28 by counting the wells with parasite growth.

[7] = per replicate experiment, read-out: IC50, asexual blood stages
[8] = asexual blood stages NF54 parasites, read-out: IC50

CC(C)(CO)[C@@H](O)C(=O)NCCNC(=O)c1cc(C#N)ccc1F [MMV976394]
asexual blood stages growth, dose-response ([1]; Log concentration (M) -6): 3.4 and 4.05
asexual blood stages growth, dose-response ([1]; Log concentration (M) -6.5): 2.2 and 3.95
asexual blood stages growth, dose-response ([1]; Log concentration (M) -8.5): 87.25 and 70.5
asexual blood stages growth, dose-response ([1]; Log concentration (M) -9): 94.8 and 82.75
asexual blood stages growth, dose-response ([1]; Log concentration (M) -9.5): 101.5 and 89.75
asexual blood stages growth, dose-response ([1]; Log concentration (M) -10): 97.1 and 96.9
IC50 [1, 7]: 25 nM and 6.26 nM
Human hepatocyte CLint [2]: 0.2 µl/min/10^6 cells

C[C@@H](CNC(=O)[C@H](O)C(C)(C)CO)NC(=O)c1cc(C#N)ccc1F [MMV693182]
asexual blood stages growth, dose-response ([1]; Log concentration (M) -7.5): 14.55 and 11.25
asexual blood stages growth, dose-response ([1]; Log concentration (M) -8): 38 and 38.5
asexual blood stages growth, dose-response ([1]; Log concentration (M) -8.5): 59.8 and 65.55
asexual blood stages growth, dose-response ([1]; Log concentration (M) -9): 98.45 and 83.35
asexual blood stages growth, dose-response ([1]; Log concentration (M) -9.5): 91.35 and 91.95
asexual blood stages growth, dose-response ([1]; Log concentration (M) -10): 80.55 and 97.8
IC50 ([1]; Plasmodium falciparum, NF54, 72 h, 72-h asexual growth assay, range of independent experiments, read-out: Asexual blood stage IC50 range (N)): 6.2 to 7.5 nM
IC50 ([1]; Plasmodium falciparum, NF54, asexual blood stages NF54 parasites): 7.5 nM
IC50 ([1]; Plasmodium falciparum, NF54, per replicate experiment, read-out: IC50, asexual blood stages): 7.54 nM
IC50 [1, 7]: 6.21 nM

C[C@@H](CNC(=O)[C@H](O)C(C)(C)CO)NC(=O)c1cccc(F)c1 (stereo in doubt) [MMV1542001]
asexual blood stages growth, dose-response ([1]; Log concentration (M) -8.5): 33 and 19.45
asexual blood stages growth, dose-response ([1]; Log concentration (M) -9): 66.7 and 78.5
asexual blood stages growth, dose-response ([1]; Log concentration (M) -9.5): 89.15 and 95.45
asexual blood stages growth, dose-response ([1]; Log concentration (M) -10): 79.7 and 90.9
IC50 [1, 8]: 2.4 nM
IC50 [1, 7]: 2.45 nM and 1.87 nM
Human hepatocyte CLint [2]: 0.5 µl/min/10^6 cells

C[C@@H](CNC(=O)[C@H](O)C(C)(C)CO)NC(=O)c1cccc(C#N)c1 (stereo in doubt) [MMV884962]
asexual blood stages growth, dose-response ([1]; Log concentration (M) -7): 1.15 and 1.45
asexual blood stages growth, dose-response ([1]; Log concentration (M) -7.5): 11.25 and 6.6
asexual blood stages growth, dose-response ([1]; Log concentration (M) -8): 55.2 and 32.3
asexual blood stages growth, dose-response ([1]; Log concentration (M) -8.5): 80.1 and 73.8
asexual blood stages growth, dose-response ([1]; Log concentration (M) -9): 84.85 and 73.05
asexual blood stages growth, dose-response ([1]; Log concentration (M) -9.5): 95.6 and 92.6
asexual blood stages growth, dose-response ([1]; Log concentration (M) -10): 93.15 and 89.75
IC50 [1, 8]: 7.4 nM
IC50 [1, 7]: 12.1 nM and 7.41 nM
Human hepatocyte CLint [2]: 0.3 µl/min/10^6 cells

C[C@@H](CNC(=O)[C@H](O)C(C)(C)CO)NC(=O)c1cc(F)c(F)cc1F [MMV693183]
sensitivity of T627A AcAS mutant [3]: also resistant to MMV693183
IC50 shift asexual ([3]; CRISPR cT648M): 49 ×
IC50 shift ([3]; NF54 selected at 7 nM): 77 x
IC50 shift ([3]; selected resistant parasites vs parent, asexual growth assay): 13-77 ×
in vitro-determined IC99 [1]: 36.1 nM
asexual blood stages growth, dose-response ([1]; Log concentration (M) -8.5): 38.5 and 30.4 and 47.25 and 30.7
asexual blood stages growth, dose-response ([1]; Log concentration (M) -9): 74.05 and 74.55 and 77.05 and 67.5
asexual blood stages growth, dose-response ([1]; Log concentration (M) -9.5): 92.6 and 74.65 and 93.65 and 69.75
asexual blood stages growth, dose-response ([1]; Log concentration (M) -10): 93.45 and 77.05 and 101.75 and 92
IC50 [1, 8]: 2.8 nM
IC50 [1, 7]: 2.37 nM and 2.81 nM and 2.66 nM and 2.15 nM
Compound Remaining (% of 0 min) ([4]; 0 min): 100%
Compound Remaining (% of 0 min) ([4]; 5 min): 96.2%
Compound Remaining (% of 0 min) ([4]; 10 min): 97.1%
Compound Remaining (% of 0 min) ([4]; 20 min): 97.8%
Compound Remaining (% of 0 min) ([4]; 40 min): 92.7%
Compound Remaining (% of 0 min) ([4]; 60 min): 89.2%
% Remaining ([2]; hepatocyte donor HC02, 0 h): 100.0%
% Remaining ([2]; hepatocyte donor HC02, 6 h): 77.4% and 91.4%
% Remaining ([2]; hepatocyte donor HC02, 24 h): 90.3% and 124.4%
% Remaining ([2]; hepatocyte donor HC02, 48 h): 87.4% and 110.8%
% Remaining ([2]; hepatocyte donor HC02, 72 h): 63.9% and 86.8%
% Remaining ([2]; hepatocyte donor HC06, 0 h): 100.0%
% Remaining ([2]; hepatocyte donor HC06, 3 h): 77.2% and 88.0%
% Remaining ([2]; hepatocyte donor HC06, 6 h): 79.3% and 91.3%
% Remaining ([2]; hepatocyte donor HC06, 24 h): 87.0% and 115.0%
% Remaining ([2]; hepatocyte donor HC06, 48 h): 64.3% and 81.2%
% Remaining ([2]; hepatocyte donor HC06, 72 h): 61.0% and 75.3%
% Remaining ([2]; hepatocyte donor HC425, 0 h): 100.0%
% Remaining ([2]; hepatocyte donor HC425, 6 h): 79.3% and 88.2%
% Remaining ([2]; hepatocyte donor HC425, 24 h): 68.0% and 93.2%
% Remaining ([2]; hepatocyte donor HC425, 48 h): 73.6% and 94.3%
% Remaining ([2]; hepatocyte donor HC425, 72 h): 68.2% and 91.6%
% Remaining ([2]; hepatocyte donor HC1010, 0 h): 100.0%
% Remaining ([2]; hepatocyte donor HC1010, 1 h): 120.3% and 86.1% and 104.1% and 69.6%
% Remaining ([2]; hepatocyte donor HC1010, 6 h): 88.7% and 55.7% and 88.0% and 45.9%
% Remaining ([2]; hepatocyte donor HC1010, 24 h): 90.4% and 62.9% and 77.2% and 55.3%
% Remaining ([2]; hepatocyte donor HC1010, 48 h): 70.7% and 54.4% and 57.7% and 44.1%
% Remaining ([2]; hepatocyte donor HC1010, 72 h): 34.1% and 43.9% and 31.3% and 51.9%
CLint ([2]; donor HC02): 0.082 µL/min/million cells
CLint ([2]; donor HC06): 0.142 µL/min/million cells
CLint ([2]; donor HC425): 0.0695 µL/min/million cells
Human hepatocyte CLint [2]: 0.4 µl/min/10^6 cells
human hepatocyte clearance, four donors ([2]; range of donors): 0.07 to 0.4 µl/min/10^6 cells
IC50 shift sexual ([5]; CRISPR cT648M): > 50 ×
IC50 shift gametocytes ([5]; selected resistant (dT648M) gametocytes): > 50 ×
time to parasitemia below the detection limit ([6]; 40 nM (10x IC50)): ≤ 48 h
Average (log parasites +1) ([6]; 24 h): 0.452
Average (log parasites +1) ([6]; 48 h): 0.0
log (parasites +1) ([6]; 48 h): 0.0
parasites ([6]; 48 h): 0
Average (log parasites +1) ([6]; 72h): 0.0
log (parasites +1) ([6]; 72h): 0.0
parasites ([6]; 72h): 0
Average (log parasites +1) ([6]; 96h): 0.0
log (parasites +1) ([6]; 96h): 0.0
parasites ([6]; 96h): 0
Average (log parasites +1) ([6]; 120h): 0.0
log (parasites +1) ([6]; 120h): 0.0
parasites ([6]; 120h): 0
